From patent EP4768479A1 (Hubei Bio-Pharmaceutical Industrial Technological Institute …, priority 2023, dated 2025) come the findings set out here.

Structures are written as SMILES.

Series [1] can be described thus: Pharmacokinetic study following single oral gavage administration to cynomolgus monkeys. The class given is in vivo. As to conditions: cynomolgus monkey, plasma, 5 mg/kg; Monkey PK PO (5 mpk). As to the method: The compounds were dissolved in a vehicle consisting of 5% DMSO+10% Solutol+85% Saline to a concentration of 1 mg/mL, and administered at a dose of 5 mpk. The animals were weighed before the administration, and the dosing volume was calculated based on the body weight. The compounds were administered to the animals via oral gavage. Blood samples were collected via a femoral vein or other suitable methods at time points of 0.083 hours, 0.25 hours, 0.5 hours, 1 hour, 2 hours, 4 hours, 6 hours, 8 hours, and 24 hours. Approximately 1 mL of each sample was collected at each time point, anticoagulated with sodium heparin, and placed on ice immediately after the collection. After the blood samples were collected, they were placed on ice and centrifuged within 1 hour to separate plasma (centrifugation conditions: 2,200g, 10 minutes, and 2°C to 8°C). The plasma samples were stored in a -80°C refrigerator until analysis.
The bioanalytical method and sample analysis were performed by the Analytical Laboratory of Medicilon Inc. (Shanghai, China). Intra-day accuracy of quality control samples was evaluated concurrently with the sample analysis, requiring that accuracy of more than 66.7% of the quality control samples fell within the range of 80% to 120%. [Table 5] Pharmacokinetics of Compounds in Monkeys

The next series concerns the target T1, CYP2C9 (Homo sapiens, UniProt P11712).
T1 construct: Mixed human liver microsomes; from tissue; host or cells: mixed (pooled) human liver microsomes
The series is described as follows: CYP inhibition assay in mixed human liver microsomes. In kind it is in vitro ADME. As to conditions: read-out: Inhibition Rate % CYP2C9. As to the method: (§1) The inhibitory effects of the compounds on six enzymes, i.e., CYP1A2, CYP2C9, CYP2C19, CYP2D6, CYP3A4 (midazolam), and CYP2B6, were evaluated at a concentration of 10 µM. Mixed human liver microsomes, which were previously stored in a -80°C refrigerator before use, were taken out and thawed in a water bath at 37°C before use, and placed on ice for further operation. 100 µL of microsome working solution was taken, and added with 2 µL of compound or positive inhibitor working solution. 2 µL of solvent was added to the solvent control. The mixture was pre-incubated in a water bath at 37°C for 10 minutes. After the preincubation, 98 µL of NADPH regeneration solution was added to all samples to initiate the reaction. Then, the samples were put back into the water bath and incubated for a period of time. The reaction was quenched with 200 µL of stop solution. The plate was centrifuged at 3,220 g for 10 minutes, 100 µL of supernatant was transferred, and 100 µL of water was added and mixed well to the assay plate for LC/MS/MS analysis. [Table 2] CYP450 Inhibition Results of Compounds
(Liver microsomes are a subcellular fraction often used to study metabolism.)

Another series deals with T2, CYP2D6 (Homo sapiens, UniProt P10635).
T2 construct: Mixed human liver microsomes; from tissue; host or cells: mixed (pooled) human liver microsomes
Described as above. In kind it is in vitro ADME. The note with it: read-out: Inhibition Rate % CYP2D6. As to the method: as §1

The next series addresses T3, CYP1A2 (Homo sapiens, UniProt P05177).
T3 construct: Mixed human liver microsomes; from tissue; host or cells: mixed (pooled) human liver microsomes
T3 sequence (P05177 1-516): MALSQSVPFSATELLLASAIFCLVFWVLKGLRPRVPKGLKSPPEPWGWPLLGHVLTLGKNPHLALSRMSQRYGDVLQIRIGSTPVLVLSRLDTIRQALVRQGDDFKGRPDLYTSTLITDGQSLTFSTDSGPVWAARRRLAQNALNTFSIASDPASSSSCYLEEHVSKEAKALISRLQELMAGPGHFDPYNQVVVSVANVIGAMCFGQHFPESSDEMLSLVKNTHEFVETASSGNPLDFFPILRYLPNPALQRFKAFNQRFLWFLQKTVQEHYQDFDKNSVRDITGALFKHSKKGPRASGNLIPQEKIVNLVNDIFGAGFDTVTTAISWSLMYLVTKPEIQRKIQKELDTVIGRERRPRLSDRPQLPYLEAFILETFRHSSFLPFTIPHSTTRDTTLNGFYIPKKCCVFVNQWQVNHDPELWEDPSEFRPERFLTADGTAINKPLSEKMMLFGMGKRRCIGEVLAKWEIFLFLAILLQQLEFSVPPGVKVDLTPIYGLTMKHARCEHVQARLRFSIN
The series is described as above. As to conditions: read-out: Inhibition Rate % CYP1A2. The class given is in vitro ADME. As to the method:
as §1

In another series the target is T4, CYP2B6 (Homo sapiens, UniProt P20813).
T4 construct: Mixed human liver microsomes; from tissue; host or cells: mixed (pooled) human liver microsomes
T4 sequence (P20813 1-491): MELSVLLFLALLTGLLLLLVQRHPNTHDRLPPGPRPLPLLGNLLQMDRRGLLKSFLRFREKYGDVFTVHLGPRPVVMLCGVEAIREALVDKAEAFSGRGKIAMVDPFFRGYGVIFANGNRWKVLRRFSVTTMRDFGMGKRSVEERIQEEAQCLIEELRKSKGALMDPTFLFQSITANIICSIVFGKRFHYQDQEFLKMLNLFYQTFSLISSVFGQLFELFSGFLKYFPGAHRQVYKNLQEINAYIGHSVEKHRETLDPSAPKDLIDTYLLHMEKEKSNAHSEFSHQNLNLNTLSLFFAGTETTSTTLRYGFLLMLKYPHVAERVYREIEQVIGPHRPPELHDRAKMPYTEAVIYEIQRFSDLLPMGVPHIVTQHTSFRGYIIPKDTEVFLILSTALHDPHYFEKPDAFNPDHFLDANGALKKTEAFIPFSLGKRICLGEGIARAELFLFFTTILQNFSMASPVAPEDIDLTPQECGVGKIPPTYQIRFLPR
Described as above. The class given is in vitro ADME. The note with it: read-out: Inhibition Rate % CYP2B6. As to the method: as §1

The next series has as its target T5, CYP2C19 (Homo sapiens, UniProt P33261).
T5 construct: Mixed human liver microsomes; from tissue; host or cells: mixed (pooled) human liver microsomes
Described as above. In kind it is in vitro ADME. As to conditions: read-out: Inhibition Rate % CYP2C19. As to the method: as §1

For another series, the target named is T6, CYP3A4 (Homo sapiens, UniProt P08684).
T6 construct: Mixed human liver microsomes; from tissue; host or cells: mixed (pooled) human liver microsomes
The series is described as above. The class given is in vitro ADME. As to conditions: probe midazolam, read-out: Inhibition Rate % CYP3A4 (midazolam). As to the method:
as §1

T5 sequence (P33261 whole entry): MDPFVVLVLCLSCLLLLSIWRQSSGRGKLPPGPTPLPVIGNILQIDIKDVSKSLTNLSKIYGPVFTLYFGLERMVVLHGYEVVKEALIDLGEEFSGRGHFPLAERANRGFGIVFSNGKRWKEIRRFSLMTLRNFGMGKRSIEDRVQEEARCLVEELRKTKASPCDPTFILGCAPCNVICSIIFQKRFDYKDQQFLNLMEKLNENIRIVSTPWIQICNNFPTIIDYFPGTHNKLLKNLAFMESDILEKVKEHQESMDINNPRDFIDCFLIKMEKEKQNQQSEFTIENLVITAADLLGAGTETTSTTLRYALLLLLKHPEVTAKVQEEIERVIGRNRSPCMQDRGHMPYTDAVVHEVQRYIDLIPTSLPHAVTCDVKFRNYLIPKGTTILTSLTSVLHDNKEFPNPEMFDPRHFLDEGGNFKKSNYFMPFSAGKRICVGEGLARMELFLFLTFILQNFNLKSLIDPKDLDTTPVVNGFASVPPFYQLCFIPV
T6 sequence (P08684 whole entry): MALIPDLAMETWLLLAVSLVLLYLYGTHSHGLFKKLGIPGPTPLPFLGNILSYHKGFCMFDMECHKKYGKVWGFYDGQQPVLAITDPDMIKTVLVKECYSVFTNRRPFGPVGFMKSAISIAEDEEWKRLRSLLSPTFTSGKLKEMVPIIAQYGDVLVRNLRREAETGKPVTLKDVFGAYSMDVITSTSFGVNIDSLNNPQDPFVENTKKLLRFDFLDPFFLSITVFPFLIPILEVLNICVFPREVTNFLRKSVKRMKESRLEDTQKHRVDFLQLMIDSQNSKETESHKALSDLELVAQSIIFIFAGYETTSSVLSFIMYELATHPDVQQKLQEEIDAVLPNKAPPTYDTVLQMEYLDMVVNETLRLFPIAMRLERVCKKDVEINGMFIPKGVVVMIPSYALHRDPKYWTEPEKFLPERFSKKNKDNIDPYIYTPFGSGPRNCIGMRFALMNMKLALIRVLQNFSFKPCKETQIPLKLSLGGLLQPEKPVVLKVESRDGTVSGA
T1 sequence (P11712 whole entry): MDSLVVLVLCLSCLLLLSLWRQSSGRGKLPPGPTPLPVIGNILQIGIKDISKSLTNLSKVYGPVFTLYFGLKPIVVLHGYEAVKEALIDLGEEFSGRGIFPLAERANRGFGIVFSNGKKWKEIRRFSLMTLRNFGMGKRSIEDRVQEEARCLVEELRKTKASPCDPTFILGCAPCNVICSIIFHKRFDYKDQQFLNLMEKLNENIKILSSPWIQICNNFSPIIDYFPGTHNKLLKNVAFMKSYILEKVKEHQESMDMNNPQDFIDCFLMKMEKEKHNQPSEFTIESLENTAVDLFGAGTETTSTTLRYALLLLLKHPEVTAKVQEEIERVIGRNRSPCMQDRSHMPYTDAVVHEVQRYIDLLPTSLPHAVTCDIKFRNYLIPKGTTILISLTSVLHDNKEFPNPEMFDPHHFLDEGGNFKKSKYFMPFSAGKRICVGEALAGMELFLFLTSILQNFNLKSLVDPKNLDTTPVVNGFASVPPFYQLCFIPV
T2 sequence (P10635 whole entry): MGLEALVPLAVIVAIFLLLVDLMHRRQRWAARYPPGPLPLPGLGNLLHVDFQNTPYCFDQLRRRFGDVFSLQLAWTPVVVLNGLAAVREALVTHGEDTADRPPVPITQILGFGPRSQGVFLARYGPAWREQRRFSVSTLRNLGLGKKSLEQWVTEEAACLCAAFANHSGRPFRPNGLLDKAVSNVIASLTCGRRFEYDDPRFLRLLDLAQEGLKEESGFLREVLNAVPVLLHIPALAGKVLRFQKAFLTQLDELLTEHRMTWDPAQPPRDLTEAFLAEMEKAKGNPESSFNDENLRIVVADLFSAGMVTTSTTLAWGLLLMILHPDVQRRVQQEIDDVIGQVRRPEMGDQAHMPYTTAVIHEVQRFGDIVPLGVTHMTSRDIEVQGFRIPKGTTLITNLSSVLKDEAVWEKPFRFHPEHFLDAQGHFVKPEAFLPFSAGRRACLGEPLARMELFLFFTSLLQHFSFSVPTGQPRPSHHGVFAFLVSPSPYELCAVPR

`COC(=O)NS(=O)(=O)c1sc(CC(C)C)c(C)c1-c1ccc(Cn2ccnc2C(F)(F)F)cc1` [Compound I-9, Methyl ((5-isobutyl-4-methyl-3-(4-((2-(trifluoromethyl)-1H-imidazol-1-yl)methyl)phenyl)thiophen-2-yl)sulfonyl)carbamate]: the AUC(0-t) (as a rule, the area under the concentration-time curve up to a stated or last time point) in series [1] stood at 7790 ng·h/mL. Further, the Cmax (in general, the peak of the concentration-time curve) in series [1] is 5310 ng/mL. Further, the inhibition (commonly the share of the control response that was lost under treatment) at 10 µM amounted to 18.6% on CYP2C9; 0% on CYP2D6; 0% on CYP1A2; 22.2% on CYP2B6; 29.8% at CYP2C19; 0% on CYP3A4.
Consider `Cc1c(CC(C)C)sc(S(=O)(=O)NC(=O)OCC(C)(C)O)c1-c1ccc(Cn2ccnc2C(F)(F)F)cc1` [Compound I-10, 2-hydroxy-2-methylpropyl ((5-isobutyl-4-methyl-3-(4-((2-(trifluoromethyl)-1H-imidazol-1-yl)methyl)phenyl)thiophen-2-yl)sulfonyl)carbamate], for which, in series [1], the AUC(0-t) worked out at 5570 ng·h/mL. Also, the Cmax in series [1] was 3560 ng/mL. Further, the inhibition at 10 µM on CYP2C9 worked out at 5.3%; at CYP2D6, 0%; at CYP1A2, 0%; at CYP2B6, 13.7%; at CYP2C19, 7.4%; on CYP3A4, 0%.
In the case of `Cc1c(CC(C)C)sc(S(=O)(=O)NC(=O)OCCO)c1-c1ccc(Cn2ccnc2C(F)(F)F)cc1` [Compound I-13, 2-hydroxyethyl ((5-isobutyl-4-methyl-3-(4-((2-(trifluoromethyl)-1H-imidazol-1-yl)methyl)phenyl)thiophen-2-yl)sulfonyl)carbamate], the inhibition at 10 µM at CYP2C9 worked out at 12.2%; on CYP2D6, 0%; at CYP1A2, 3.5%; on CYP2B6, 11.3%; at CYP2C19 it was 17.3%; at CYP3A4 it was 9.6%.
As for `COC(=O)NS(=O)(=O)c1sc(CC(C)C)c(C)c1-c1ccc(Cn2ccnc2Cl)c(F)c1` [Compound I-14, Methyl ((3-(4-((2-chloro-1H-imidazol-1-yl)methyl)-3-fluorophenyl)-5-isobutyl-4-methylthiophen-2-yl)sulfonyl)carbamate], in series [1], the AUC(0-t) came out at 7350 ng·h/mL. This compound also returned a Cmax in series [1] of 5040 ng/mL. The inhibition at 10 µM came out at 24.8% at CYP2C9; 2.1% on CYP2D6; 5.6% on CYP1A2; 4.3% on CYP2B6; 11.9% on CYP2C19; 14% on CYP3A4.
In the case of `COC(=O)NS(=O)(=O)c1sc(CC(C)C)c(C)c1-c1ccc(Cn2ccnc2C(C)(C)O)cc1` [Compound I-19, Methyl ((3-(4-((2-(2-hydroxypropan-2-yl)-1H-imidazol-1-yl)methyl)phenyl)-5-isobutyl-4-methylthiophen-2-yl)sulfonyl)carbamate], in series [1], the area under the curve AUC(0-t) came to 6820 ng·h/mL. This compound came in with a peak concentration (Cmax) in series [1] of 4030 ng/mL. Besides, the inhibition at 10 µM amounted to 0% at CYP2C9; 0% at CYP2D6; 0% on CYP1A2; 3.8% at CYP2B6; 0% at CYP2C19; 7.6% at CYP3A4.
On to `Cc1c(CC(C)C)sc(S(=O)(=O)Nc2ncccn2)c1-c1ccc(Cn2ccnc2Cl)cc1` [Compound I-23, 3-(4-((2-chloro-1H-imidazol-1-yl)methyl)phenyl)-5-isobutyl-4-methyl-N-(pyrimidin-2-yl)thiophene-2-sulfonamide], for which the inhibition at 10 µM on CYP2C9 came out at 20.5%; on CYP2D6 it was 0%; on CYP1A2, 8.3%; on CYP2B6 it was 7.6%; at CYP2C19, 15.4%; at CYP3A4 it was 0%.
In series [1], `CCCCOC(=O)NS(=O)(=O)c1sc(CC(C)C)cc1-c1ccc(Cn2ccnc2)cc1` [Control Compound I, reference compound] returned an AUC(0-t) of 4920 ng·h/mL. The compound further returned a peak concentration (Cmax) in series [1] of 1320 ng/mL. Moreover, the inhibition at 10 µM was 100% on CYP2C9; 86.5% on CYP2D6; 95.4% on CYP1A2; 63.2% at CYP2B6; 100% on CYP2C19; 92.6% on CYP3A4.
